The results in this text go back to patent US9255100B2 (BAYER INTELLECTUAL PROPERTY GMBH, priority 2010, dated 2016).

One may read the IC50 as the concentration that gives 50% inhibition.

The target in this experiment is T1, N-terminally GST-tagged human full length recombinant Mps-1 kinase (Homo sapiens, UniProt P33981).
T1 construct: N-terminally GST-tagged human full length recombinant Mps-1 kinase; purchased Invitrogen, Karslruhe, Germany PV4071
T1 sequence (P33981 1-857): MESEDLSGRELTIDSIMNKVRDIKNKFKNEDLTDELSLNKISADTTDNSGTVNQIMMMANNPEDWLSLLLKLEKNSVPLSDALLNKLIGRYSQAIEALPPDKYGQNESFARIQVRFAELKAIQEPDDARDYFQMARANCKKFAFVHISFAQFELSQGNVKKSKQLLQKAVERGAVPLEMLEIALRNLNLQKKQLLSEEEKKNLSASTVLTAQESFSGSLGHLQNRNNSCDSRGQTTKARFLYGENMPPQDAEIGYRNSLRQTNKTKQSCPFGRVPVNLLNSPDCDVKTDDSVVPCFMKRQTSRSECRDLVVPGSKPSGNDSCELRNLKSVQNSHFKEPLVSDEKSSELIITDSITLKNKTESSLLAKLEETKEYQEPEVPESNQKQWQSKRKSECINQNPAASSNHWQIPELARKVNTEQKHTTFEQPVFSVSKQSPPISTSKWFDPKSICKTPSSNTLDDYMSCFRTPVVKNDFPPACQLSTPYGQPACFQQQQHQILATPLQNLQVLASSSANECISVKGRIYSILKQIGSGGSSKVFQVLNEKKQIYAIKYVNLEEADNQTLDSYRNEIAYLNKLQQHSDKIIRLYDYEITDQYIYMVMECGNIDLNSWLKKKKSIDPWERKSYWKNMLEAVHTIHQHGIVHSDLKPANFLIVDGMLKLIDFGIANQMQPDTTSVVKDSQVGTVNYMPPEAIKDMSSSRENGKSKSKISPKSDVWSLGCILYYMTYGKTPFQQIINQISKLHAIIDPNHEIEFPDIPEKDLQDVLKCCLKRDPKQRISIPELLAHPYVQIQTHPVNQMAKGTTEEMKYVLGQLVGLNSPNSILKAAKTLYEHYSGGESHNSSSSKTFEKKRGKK
Put plainly: Mps-1 kinase assay (TR-FRET). The format is biochemical. Particulars: Mps1 IC50 [nM], 10 μM ATP, 1 μM peptide substrate, 60 min at 22° C. A digest of the protocol: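 Inhibition of Mps-1 (N-terminal GST fusion, full length) toward a biotinylated peptide is read as Eu-to-XLent TR-FRET. Enzyme level, around 1 nM final, follows lot activity.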
(In general: In TR-FRET formats the signal depends on donor and acceptor labels being close together.)
For `Cc1cc(Nc2cc(NCCC(F)(F)F)c3ncc(-c4ccc(C(=O)NC5CC5)c(C)c4)n3n2)ccc1F` [Example 428, N-cyclopropyl-4-{6-[(4-fluoro-3-methylphenyl)amino]-8-[(3,3,3-trifluoropropyl)amino]imidazo[1,2-b]pyridazin-3-yl}-2-methylbenzamide], the IC50 amounted to 0.4 nM.
As to `Cc1cc(-c2cnc3c(NCC(C)(C)O)cc(Sc4nnc[nH]4)nn23)ccc1C(=O)NC1CC1` [Example 316, N-cyclopropyl-4-{8-[(2-hydroxy-2-methylpropyl)amino]-6-(4H-1,2,4-tri-azol-3-ylsulfanyl)imidazo [1,2-b]pyridazin-3-yl}-2-methylbenzamide], the IC50 is 118 nM.
The same measure for `Cc1cc(-c2cnc3c(NCC(C)(C)O)cc(Sc4ccc(O)cc4)nn23)ccc1C(=O)NC1CC1` [Example 60A, N-cyclopropyl-4-{8-[(2-hydroxy-2-methylpropyl)amino]-6-[(4-hydroxyphenyl)sulfanyl]imidazo[1,2-b]pyridazin-3-yl}-2-methylbenzamide]: 0.2 nM.
Turning to `COc1ccc(Nc2cc(NCC(C)(C)O)c3ncc(-c4ccc(C(=O)NC5CC5)c(C)c4)n3n2)cc1F` [Example 353, N-cyclopropyl-4-{6-[(3-fluoro-4-methoxyphenyl)amino]-8-[(2-hydroxy-2-methylpropyl)amino]imidazo[1,2-b]pyridazin-3-yl}-2-methylbenzamide], the IC50 was determined as 0.4 nM.
The same measure for `CC(=O)Nc1ccccc1-c1cc(NCC(C)C)c2ncc(-c3ccc(C(=O)NC4CC4)cc3)n2n1` [Example 107, 4-{6-[2-(Acetylamino)phenyl]-8-[(2-methylpropyl)amino]imidazo[1,2-b]pyridazin-3-yl}-N-cyclopropylbenzamide]: 35.5 nM.
`Cc1cc(-c2cnc3c(NCC4CCOC4)cc(Oc4cccc(F)c4)nn23)ccc1C(=O)NC1CC1` (stereo not shown) [Example 328, N-cyclopropyl-4-{6-(3-fluorophenoxy)-8-[(tetra-hydrofuran-3-ylmethyl)amino]imidazo[1,2-b]pyridazin-3-yl}-2-methyl-benzamide]: the IC50 amounted to 0.3 nM.
The same measure for `Cc1cc(-c2cnc3c(NCC(C)C)cc(-c4ccnn4C)nn23)ccc1C(=O)NC1CC1` [Example 202, N-cyclopropyl-2-methyl-4-{8-[(2-methylpropyl)amino]-6-(1-methyl-1H-pyrazol-5-yl)imidazo[1,2-b]pyridazin-3-yl}benzamide]: 1.5 nM; for `Cc1cc(-c2cnc3c(NCCCS(=O)(=O)O)cc(Oc4cccc(F)c4)nn23)ccc1C(=O)NC1CC1` [Example 547, 3-({3-[4-(cyclopropylcarbamoyl)-3-methylphenyl]-6-(3-fluorophenoxy)imidazo[1,2-b]pyridazin-8-yl}amino)propane-1-sulfonic acid]: 0.2 nM; for `Cc1cc(-c2cnc3c(NCCC(F)(F)F)cc(Nc4cccc(F)c4F)nn23)ccc1C(=O)NC1CC1` [Example 380, N-cyclopropyl-4-{6-[(2,3-difluorophenyl)amino]-8-[(3,3,3-trifluoropropyl)amino]imidazo[1,2-b]pyridazin-3-yl}-2-methylbenzamide]: 0.1 nM.
Regarding `Cc1ccc(Sc2cc(NCC(C)(C)O)c3ncc(-c4ccc(C(=O)NC5CC5)c(C)c4)n3n2)c(F)c1` [Example 360, N-cyclopropyl-4-{6-[(2-fluoro-4-methylphenyl)sulfanyl]-8-[(2-hydroxy-2-methylpropyl)amino]imidazo[1,2-b]pyridazin-3-yl}-2-methylbenzamide], the IC50 worked out at 0.9 nM.
The same measure for `CC=Cc1cc(NCC(C)(C)O)c2ncc(-c3ccc(-c4cnc(C5CC5)[nH]4)cc3)n2n1` (mixture of isomers) [Example 2, 1-({3-[4-(2-Cyclopropyl-1H-imidazol-5-yl)phenyl]-6-[(1E/Z)-prop-1-en-1-yl]imidazo[1,2-b]pyridazin-8-yl}amino)-2-methylpropan-2-ol]: 90.5 nM; for `Cc1cc(-c2cnc3c(NCC(C)(C)O)cc(Sc4ccccn4)nn23)ccc1C(=O)NC1CC1` [Example 334, N-cyclopropyl-4-{8-[(2-hydroxy-2-methylpropyl)amino]-6-(pyridin-2-yl-sulfanyl)imidazo[1,2-b]pyridazin-3-yl}-2-methyl-benzamide]: 30 nM.
For `Fc1ccc(-c2cc(NCCC(F)(F)F)c3ncc(-c4ccc(-c5cnc(C6CC6)[nH]5)cc4)n3n2)cc1` [Example 6, 3-[4-(2-Cyclopropyl-1H-imidazol-5-yl)phenyl]-6-(4-fluorophenyl)-N-(3,3,3-trifluoropropyl)imidazo[1,2-b]pyridazin-8-amine] the value was 43.6 nM; for `Cc1cc(-c2cnc3c(NCCC(=O)N(C)C)cc(Oc4cccc(F)c4)nn23)ccc1C(=O)NC1CC1` [Example 493, N-cyclopropyl-4-[8-{[3-(dimethyl-amino)-3-oxopropyl]amino}-6-(3-fluorophenoxy)imidazo[1,2-b]pyridazin-3-yl]-2-methyl-benzamide], 0.3 nM.
As to `CNC(=O)c1ccc(-c2cnc3c(NCC4CCOCC4)cc(Oc4ccccc4C)nn23)cc1C` [Example 568, N,2-dimethyl-4-{6-(2-methylphenoxy)-8-[(tetrahydro-2H-pyran-4-ylmethyl)amino]imidazo[1,2-b]pyridazin-3-yl}benzamide], the IC50 was less than 1 nM.
For `CC(C)CNc1cc(-c2cccnc2)nn2c(-c3ccc(C(=O)NC4CC4)cc3)cnc12` [Example 138, N-cyclopropyl-4-{8-[(2-methylpropyl)amino]-6-(pyridin-3-yl)imidazo [1,2-b]pyridazin-3-yl} benzamide] the value was 2 nM.
The same measure for `Cc1cc(-c2cnc3c(NCC(C)(C)N)cc(-c4ccnn4C)nn23)ccc1C(=O)NC1CC1` [Example 58, 4-{8-[(2-Amino-2-methylpropyl)amino]-6-(1-methyl-1H-pyrazol-5-yl)imidazo[1,2-b]pyridazin-3-yl}-N-cyclopropyl-2-methylbenzamide]: 20.5 nM; for `CC(C)CNc1cc(-c2cccc3cnccc23)nn2c(-c3ccc(C(=O)NC4CC4)cc3)cnc12` [Example 118, N-cyclopropyl-4-{6-(isoquinolin-5-yl)-8-[(2-methylpropyl)amino]imidazo[1,2-b]pyridazin-3-yl}benzamide]: 4.3 nM; for `COc1cc(C(=O)NC2CC2)ccc1-c1cnc2c(NCCC(F)(F)F)cc(-c3ccccc3CO)nn12` [Example 54, N-cyclopropyl-4-{6-[2-(hydroxymethyl)phenyl]-8-[(3,3,3-trifluoropropyl)amino]imidazo[1,2-b]pyridazin-3-yl}-3-methoxybenzamide]: 7.6 nM.
For `Cc1cc(-c2cnc3c(NCCS(C)(=O)=O)cc(Oc4cccc(F)c4)nn23)ccc1C(=O)NC1CC1` [Example 313, N-cyclopropyl-4-[6-(3-fluorophenoxy)-8-{[2-(methylsulfonyl)ethyl]amino}imidazo[1,2-b]pyridazin-3-yl]-2-methyl-benzamide] the value was 0.1 nM; for `CNC(=O)c1cccc(-c2cc(NCC(C)C)c3ncc(-c4ccc(C(=O)NC5CC5)cc4)n3n2)c1` [Example 119, 3-{3-[4-(Cyclopropylcarbamoyl)phenyl]-8-[(2-methylpropyl)amino]imidazo[1,2-b]pyridazin-6-yl}-N-methylbenzamide], less than 1 nM.
For `Cc1cc(-c2cnc3c(NCC(C)(C)O)cc(Oc4ccc(F)c(F)c4)nn23)ccc1C(=O)NC1CC1` [Example 254, N-cyclopropyl-4-{6-(3,4-difluorophenoxy)-8-[(2-hydroxy-2-methylpropyl)amino]imidazo[1,2-b]pyridazin-3-yl}-2-methylbenzamide], the half-inhibitory concentration (IC50) stood at 0.1 nM.
The same measure for `Cc1cc(-c2cnc3c(NCC(C)(C)O)cc(SCCN4CCOCC4)nn23)ccc1C(=O)NC1CC1` [Example 239, N-cyclopropyl-4-(8-[(2-hydroxy-2-methylpropyl)amino]-6-{[2-(morpholin-4-yl)ethyl]sulfanyl}imidazo[1,2-b]pyridazin-3-yl)-2-methylbenzamide]: 25.5 nM; for `CNC(=O)c1ccc(-c2cnc3c(NCCC(F)(F)F)cc(Oc4ccc(O)cc4F)nn23)cc1C` [Example 560, 4-{6-(2-fluoro-4-hydroxyphenoxy)-8-[(3,3,3-trifluoropropyl)amino]imidazo[1,2-b]pyridazin-3-yl}-N,2-dimethylbenzamide]: 0.1 nM; for `Cc1cc(-c2cnc3c(NCC(C)(C)O)cc(Nc4cccc(C(C)C)c4)nn23)ccc1C(=O)NC1CC1` [Example 385, N-cyclopropyl-4-{8-[(2-hydroxy-2-methylpropyl)amino]-6-[(3-isopropylphenyl)amino]imidazo[1,2-b]pyridazin-3-yl}-2-methylbenzamide]: 0.9 nM.
